# Assay results taken from patent US6828315B1, “1-Amino triazoloc4,3-a! quinazoline-5-ones and/or -5-thiones inhibiting phosphodiesterase IV” (Warner-Lambert LLC, priority 1999, dated 2004).
row,Structure (SMILES),melting point [°C]
1,"COC(=O)C(c1ccccc1)n1nc(N2CCCC2)n2c3ccc(Br)cc3c(=O)nc12 (centres unmarked) [Compound 154, (7-Bromo-5oxo-1-pyrrolidin-1-yl-5H-[1,2,4]triazolo[4,3-a]quinazolin-3-yl)-phenyl-acetic acid methyl ester]",187
2,"CN(C)c1nn(CC=Cc2ccccc2)c2nc(=O)c3cc(Br)ccc3n12 [Compound 155, 7-Bromo-1-dimethylamino-3-(3-phenyl-allyl)-3H-[1,2,4]triazolo[4,3-a]quinazolin-5-one]",206
3,"Cc1ccc2c(c1)c(=O)nc1n(CC=Cc3ccccc3)nc(N3CCCCCC3)n21 [Compound 157, 1-(azepan-1-yl)-7-methyl-3-(3-phenylallyl)-3H-[1,2,4]triazolo[4,3-a]quinazolin-5-one]",193
4,"Cc1ccc2c(c1)c(=O)nc1n(CC=Cc3ccccc3)nc(N3CCCC3)n21 [Compound 158, 7-methyl-3-(3-phenylallyl)-1-(pyrrolidin-1-yl)-3H-[1,2,4]triazolo[4,3-a]quinazolin-5-one]",225
5,"O=c1nc2n(CC=Cc3ccccc3)nc(N3CCCC3)n2c2ccc(O)cc12 [Compound 161, 7-hydroxy-3-(3-phenylallyl)-1-(pyrrolidin-1-yl)-3H-[1,2,4]triazolo[4,3-a]quinazolin-5-one]",255
6,"CCCCN(CCCC)c1nnc2n(C)c(=O)c3cc(Cl)ccc3n12 [Compound 167, 7-chloro-1-dibutylamino-4-methyl-4H-[1,2,4]triazolo[4,3-a]-quinazolin-5-one]",112
7,"Cn1c(=O)c2cc(Cl)ccc2n2c(N3CCCCC3)nnc12 [Compound 168, 7-chloro-4-methyl-1-(piperidin-1-yl)4H-[1,2,4]triazolo[4,3-a]-quinazolin-5-one]",192
8,"CN1CCN(c2nnc3n(C)c(=O)c4cc(Cl)ccc4n23)CC1 [Compound 169, 7-Chloro-4-methyl-1-(4-methyl-piperazin-1-yl)-4H-[1,2,4]triazolo[4,3-a]quinazolin-5-one]",180 to 182
9,"Cn1c(=O)c2cc(Cl)ccc2n2c(N3CC4CCC(C)(C3)C4(C)C)nnc12 (centres unmarked) [Compound 170, 7-Chloro-4-methyl-1-(1,8,8-trimethyl-3-aza-bicyclo[3.2.1]oct-3-yl)-4H-[1,2,4]triazolo[4,3-a]quinazolin-5-one]",185
10,"O=c1c2cc(Cl)ccc2n2c(N3CCCCCC3)nnc2n1Cc1ccccc1 [Compound 172, 1-(azepan-1-yl)-4-benzyl-7-chloro-4H-[1,2,4]triazolo[4,3-a]-quinazolin-5-one]",162
11,"O=c1c2cc(Cl)ccc2n2c(N3CCCC3)nnc2n1Cc1ccccc1 [Compound 173, 4-benzyl-7chloro-1-(pyrrolidin-1-yl)-4H-[1,2,4]triazolo[4,3-a]-quinazolin-5-one]",163
12,"O=c1c2cc(Cl)ccc2n2c(N3CCCCC3)nnc2n1Cc1ccccc1 [Compound 174, 4-benzyl-7-chloro-1-(piperidin-1-yl)-4H-[1,2,4]triazolo[4,3-a]-quinazolin-5-one]",178
13,"Cn1c(=O)c2ccc(Cl)cc2n2c(N3CCCCCC3)nnc12 [Compound 175, 1-(azepan-1-yl)-8-chloro-4-methyl-4H-[1,2,4]triazolo[4,3-a]-quinazolin-5-one]",179

# Next, values leading:
row,melting point [°C],Structure (SMILES)
1,174,"Cn1c(=O)c2cc(Br)ccc2n2c(N3CCCCCC3)nnc12 [Compound 177, 1-(azepan-1-yl)-7-bromo-4-methyl-4H-[1,2,4]triazolo[4,3-a]-quinazolin-5-one]"
2,183 to 185,"O=c1c2cc(Br)ccc2n2c(N3CCCCC3)nnc2n1Cc1ccccc1 [Compound 178, 4-benzyl-7-bromo-1-(piperidin-1-yl)-4H-[1,2,4]triazolo[4,3-a]-quinazolin-5-one]"
3,171,"CN(C)c1nnc2n(Cc3ccccc3)c(=O)c3cc(Br)ccc3n12 [Compound 179, 4-Benzyl-7-bromo-1-dimethylamino-4H-[1,2,4]triazolo[4,3-a]quinazolin-5-one]"
4,189,"O=c1c2cc(Br)ccc2n2c(N3CCOCC3)nnc2n1Cc1ccccc1 [Compound 180, 4-Benzyl-7-bromo-1-morpholin-4-yl-4H-[1,2,4]triazolo[4,3-a]quinazolin-5-one]"
5,235,"O=c1c2cc(Br)ccc2n2c(N3CCSCC3)nnc2n1Cc1ccccc1 [Compound 181, 4-Benzyl-7-bromo-1-thiomorpholin-4-yl-4H-[1,2,4]triazolo[4,3-a]quinazolin-5-one]"
6,230,"CN1CCN(c2nnc3n(Cc4ccccc4)c(=O)c4cc(Br)ccc4n23)CC1 [Compound 182, 4-Benzyl-7-bromo-1-(4-methyl-piperazin-1-yl)-4H-[1,2,4]triazolo[4,3-a]quinazolin-5-one]"
7,238,"O=c1c2cc(Br)ccc2n2c(N3CCN(c4ccccc4)CC3)nnc2n1Cc1ccccc1 [Compound 183, 4-Benzyl-7-bromo-1-(4-phenyl-piperazin-1-yl)-4H-[1,2,4]triazolo[4,3-a]quinazolin-5-one]"
8,172,"O=c1c2cc(Br)ccc2n2c(N3CC=CCC3)nnc2n1Cc1ccccc1 [Compound 185, 4-Benzyl-7-bromo-1-(3,6-dihydro-2H-pyridin-1-yl)-4H-[1,2,4]triazolo[4,3-a]quinazolin-5-one]"
9,210,"O=c1c2cc(Br)ccc2n2c(N3CC=CC3)nnc2n1Cc1ccccc1 [Compound 186, 4-Benzyl-7-bromo-1-(2,5-dihydro-pyrrol-1-yl)-4H-[1,2,4]triazolo[4,3-a]quinazolin-5-one]"
10,176,"O=c1c2cc(Br)ccc2n2c(N3CCC(O)C3)nnc2n1Cc1ccccc1 (centres unmarked) [Compound 187, 4-Benzyl-7-bromo-1-(3-hydroxy-pyrrolidin-1-yl)-4H-[1,2,4]triazolo[4,3-a]quinazolin-5-one]"
11,238,"CNc1nnc2n(Cc3ccccc3)c(=O)c3cc(Br)ccc3n12 [Compound 188, 4-Benzyl-7-bromo-1-methylamino-4H-[1,2,4]triazolo[4,3-a]quinazolin-5-one]"
12,189,"Cc1ccc2c(c1)c(=O)n(Cc1ccccc1)c1nnc(N3CCCC3)n21 [Compound 191, 4-Benzyl-7-methyl-1-pyrrolidin-1-yl-4H-[1,2,4]triazolo[4,3-a]quinazolin-5-one]"
13,186,"Cc1ccc2c(c1)c(=O)n(Cc1ccccc1)c1nnc(N(C)C)n21 [Compound 192, 4-Benzyl-1-dimethylamino-7-methyl-4H-[1,2,4]triazolo[4,3-a]quinazolin-5-one]"
14,265,"Cc1ccc2c(c1)c(=O)n(Cc1ccccc1)c1nnc(N3CCSCC3)n21 [Compound 193, 4-Benzyl-7-methyl-1-thiomorpholin-4-yl-4H-[1,2,4]triazolo[4,3-a]quinazolin-5-one]"
15,202,"Cc1ccc2c(=O)n(Cc3ccccc3)c3nnc(N4CCCCCC4)n3c2c1 [Compound 194, 1-Azepan-1-yl-4-benzyl-8-methyl-4H-[1,2,4]triazolo[4,3-a]quinazolin-5-one]"
16,153,"COc1ccc2c(c1)c(=O)n(Cc1ccccc1)c1nnc(N3CCCCCC3)n21 [Compound 195, 1-Azepan-1-yl-4-benzyl-7-methoxy-4H-[1,2,4]triazolo[4,3-a]quinazolin-5-one]"
